Results as given in US8802673B2, “Heterocyclic amine derivatives” (Hoffmann-La Roche Inc, priority 2011, dated 2014).
Counter-ions that a name gives are not always drawn.

Columns and labels:
[1] = biological target: mouse TAAR1 (Mus musculus (Mouse), UniProt Q923Y8); assay: Radioligand binding assay on mouse TAAR1; conditions: mouse TAAR1 (first value of the cell), HEK-293 membranes; read-out: Ki (μM) mouse/rat
Description: (§1) Construction of TAAR Expression Plasmids and Stably Transfected Cell Lines
(§2) For the construction of expression plasmids the coding sequences of human, rat and mouse TAAR 1 were amplified from genomic DNA essentially as described by Lindemann et al.. The Expand High Fidelity PCR System (Roche Diagnostics) was used with 1.5 mM Mg^2+ and purified PCR products were cloned into pCR2.1-TOPO cloning vector (Invitrogen) following the instructions of the manufacturer. PCR products were subcloned into the pIRESneo2 vector (BD Clontech, Palo Alto, Calif.), and expression vectors were sequence verified before introduction in cell lines.
(§3) HEK293 cells (ATCC #CRL-1573) were cultured essentially as described by Lindemann et al. (2005). For the generation of stably transfected cell lines HEK293 cells were transfected with the pIRESneo2 expression plasmids containing the TAAR coding sequences (described above) with Lipofectamine 2000 (Invitrogen) according to the instructions of the manufacturer, and 24 hrs post transfection the culture medium was supplemented with 1 mg/ml G418 (Sigma, Buchs, Switzerland). After a culture period of about 10 d clones were isolated, expanded and tested for responsiveness to trace amines (all compounds purchased from Sigma) with the cAMP Biotrak Enzyme immunoassay (EIA) System (Amersham) following the non-acetylation EIA procedure provided by the manufacturer.
Radioligand Binding Assay on Mouse TAAR1
Membrane Preparation and Radioligand Binding.
(§4) HEK-293 cells stably expressing mouse TAAR1 were maintained at 37° C. and 5% CO2 in DMEM high glucose medium, containing fetal calf serum (10%, heat inactivated for 30 min at 56° C.), penicillin/streptomycin (1%), and 375 μg/ml geneticin (Gibco). Cells were released from culture flasks using trypsin/EDTA, harvested, washed twice with ice-cold PBS (without Ca^2+ and Mg^2+), pelleted at 1,000 rpm for 5 min at 4° C., frozen and stored at −80° C. Frozen pellets were suspended in 20 ml HEPES-NaOH (20 mM, pH 7.4) containing 10 mM EDTA and homogenized with a Polytron (PT 6000, Kinematica) at 14,000 rpm for 20 s. The homogenate was centrifuged at 48,000×g for 30 min at 4° C. Subsequently, the supernatant was removed and discarded, and the pellet resuspended in 20 ml HEPES-NaOH (20 mM, pH 7.4) containing 0.1 mM EDTA using the Polytron (20 s at 14,000 rpm). This procedure was repeated and the final pellet resuspended in HEPES-NaOH containing 0.1 mM EDTA and homogenized using the Polytron. Typically, aliquots of 2 ml membrane portions were stored at −80° C. With each new membrane batch the dissociation constant (Kd) was determined via a saturation curve. […] All compounds were tested at a broad range of concentrations (10 pM to 10 μM) in duplicates. […] The 96 deep well plates were incubated for 1 hr at 4° C. Incubations were terminated by rapid filtration through Unifilter-96 plates (Packard Instrument Company) and glass filters GF/C (Perkin Elmer) presoaked for 1 hr in polyethylenimine (0.3%) and washed 3 times with 1 ml of cold binding buffer. After addition of 45 μl of Microscint 40 (PerkinElmer) the Unifilter-96 plate was sealed and after 1 hr the ratioactivity counted using a TopCount Microplate Scintillation Counter (Packard Instrument Company).

[2] = biological target: rat TAAR1 (Rattus norvegicus (Rat), UniProt Q923Y9); assay: Radioligand binding assay on rat TAAR1; conditions: rat TAAR1 (second value of the cell), HEK-293 membranes; read-out: Ki (μM) mouse/rat
Description: as §1, §2, §3
Radioligand Binding Assay on Rat TAAR1
Membrane Preparation and Radioligand Binding
as §4, with “rat” for “mouse”

Sequence of rat TAAR1 (Q923Y9 whole entry): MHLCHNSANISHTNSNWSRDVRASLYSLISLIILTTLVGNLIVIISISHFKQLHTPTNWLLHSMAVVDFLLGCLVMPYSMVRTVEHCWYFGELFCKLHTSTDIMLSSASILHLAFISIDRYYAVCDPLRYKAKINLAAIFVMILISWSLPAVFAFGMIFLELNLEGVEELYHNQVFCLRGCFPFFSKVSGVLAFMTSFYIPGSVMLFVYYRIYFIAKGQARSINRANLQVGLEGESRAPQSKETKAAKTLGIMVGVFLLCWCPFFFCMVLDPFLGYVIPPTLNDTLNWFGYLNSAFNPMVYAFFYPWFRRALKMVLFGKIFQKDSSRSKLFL
Sequence of mouse TAAR1 (Q923Y8 whole entry): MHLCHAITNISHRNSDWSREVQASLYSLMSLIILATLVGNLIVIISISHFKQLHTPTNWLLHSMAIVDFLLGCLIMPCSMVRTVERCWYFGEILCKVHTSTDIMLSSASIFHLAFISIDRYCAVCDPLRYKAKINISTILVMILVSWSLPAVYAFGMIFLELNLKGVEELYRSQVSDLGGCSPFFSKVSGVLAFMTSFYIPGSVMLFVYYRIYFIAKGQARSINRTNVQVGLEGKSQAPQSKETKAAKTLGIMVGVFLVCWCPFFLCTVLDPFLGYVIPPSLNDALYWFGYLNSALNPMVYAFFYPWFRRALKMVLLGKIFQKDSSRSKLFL

Row | SMILES | Ki [1] [µM] | Ki [2] [µM]
1 | CC(Nc1ccc([C@H]2CNCCO2)cc1)c1ccc(Cl)cc1 (mixture of isomers) [Example 70, [(RS)-1-(4-Chloro-phenyl)-ethyl]-((S)-4-morpholin-2-yl-phenyl)-amine] | 0.523 | 4.07
2 | Cc1cc(C)nc(Nc2ccc(C3CCNC3)cc2)n1 (racemic) [Example 1, (RS)-(4,6-Dimethyl-pyrimidin-2-yl)-(4-pyrrolidin-3-yl-phenyl)-amine; hydrochloride] | 0.074 | 1.51
3 | Clc1cnc(Nc2ccc(C3CNCCO3)cc2)nc1 (racemic) [Example 6, (RS)-(5-Chloro-pyrimidin-2-yl)-(4-morpholin-2-yl-phenyl)-amine] | 0.0133 | 0.232
4 | Cc1cc(C2CNCCO2)ccc1Nc1ncc(Cl)cn1 (racemic) [Example 81, (RS)-(5-Chloro-pyrimidin-2-yl)-(2-methyl-4-morpholin-2-yl-phenyl)-amine] | 0.0162 | 0.203
5 | Cc1cc(C2CNCCO2)ccc1Nc1ncc(Br)cn1 (racemic) [Example 89, (RS)-5-Bromo-N-(2-methyl-4-(morpholin-2-yl)phenyl)pyrimidin-2-amine] | 0.0139 | 0.177
6 | Clc1ccc(Nc2ccc(C3CNCCO3)cn2)nc1 (racemic) [Example 90, (RS)-5-Chloro-N-(5-(morpholin-2-yl)pyridin-2-yl)pyridin-2-amine] | 0.0196 | 0.232
7 | c1nc(Nc2ccc(C3CNCCO3)cn2)ncc1C1CC1 (racemic) [Example 92, (RS)-5-Cyclopropyl-N-(5-(morpholin-2-yl)pyridin-2-yl)pyrimidin-2-amine] | 0.0229 | 0.275
8 | c1cc(Nc2ccc(C3CNCCO3)cc2)[nH]n1 (racemic) [Example 155, (RS)-(4-Morpholin-2-yl-phenyl)-(1H-pyrazol-3-yl)-amine] | 0.6 | –
9 | Brc1cnc(Nc2ccc([C@@H]3CNCCO3)cc2)nc1 [Example 94, (5-Bromo-pyrimidin-2-yl)-((R)-4-morpholin-2-yl-phenyl)-amine] | – | 0.0489
10 | Brc1ccc(Nc2ccc([C@@H]3CNCCO3)cn2)nc1 [Example 108, (R)-5-Bromo-N-(5-(morpholin-2-yl)pyridin-2-yl)pyridin-2-amine] | – | 0.216
11 | Brc1ccc(Nc2ccc([C@H]3CNCCO3)cn2)nc1 [Example 109, (S)-5-Bromo-N-(5-(morpholin-2-yl)pyridin-2-yl)pyridin-2-amine] | – | 0.362
12 | Cc1cc([C@@H]2CNCCO2)ccc1Nc1ncc(C2CC2)cn1 [Example 110, (5-Cyclopropyl-pyrimidin-2-yl)-((R)-2-methyl-4-morpholin-2-yl-phenyl)-amine] | – | 0.0306
13 | Cc1cc([C@H]2CNCCO2)ccc1Nc1ncc(C2CC2)cn1 [Example 111, (5-Cyclopropyl-pyrimidin-2-yl)-((S)-2-methyl-4-morpholin-2-yl-phenyl)-amine] | – | 0.0322
14 | Fc1cc([C@@H]2CNCCO2)ccc1Nc1ncc(Br)cn1 [Example 126, (5-Bromo-pyrimidin-2-yl)-((R)-2-fluoro-4-morpholin-2-yl-phenyl)-amine] | – | 0.0096
15 | Fc1cc([C@H]2CNCCO2)ccc1Nc1ncc(Br)cn1 [Example 127, (5-Bromo-pyrimidin-2-yl)-((S)-2-fluoro-4-morpholin-2-yl-phenyl)-amine] | – | 0.0165

More lines, now with the values ahead:

Row | Ki [1] [µM] | Ki [2] [µM] | SMILES
16 | 0.122 | 0.0785 | FC(F)(F)C(Nc1ccc(CCC2CCCNC2)cc1)c1ccc(Cl)cc1 (racemic) [Example 4, (RS)-[1-(4-Chloro-phenyl)-2,2,2-trifluoro-ethyl]-[(RS)-4-(2-piperidin-3-yl-ethyl)-phenyl]-amine]
17 | 0.0011 | 0.029 | Clc1ccc(Nc2ccc(C3CNCCO3)cc2)nc1 (racemic) [Example 5, (RS)-(5-Chloro-pyridin-2-yl)-(4-morpholin-2-yl-phenyl)-amine]
18 | 0.0005 | 0.0325 | Clc1ccc(Nc2ccc(C3CNCCO3)cc2)cc1 (racemic) [Example 8, (RS)-(4-Chloro-phenyl)-(4-morpholin-2-yl-phenyl)-amine]
19 | 0.0181 | 0.0893 | Clc1ccc(CNc2ccc(C3CNCCO3)cc2)cc1 (racemic) [Example 9, (RS)-(4-Chloro-benzyl)-(4-morpholin-2-yl-phenyl)-amine]
20 | 0.0024 | 0.045 | Cc1cc(C2CNCCO2)ccc1Nc1ccc(Br)cn1 (racemic) [Example 76, (RS)-5-Bromo-N-(2-methyl-4-(morpholin-2-yl)phenyl)pyridin-2-amine]
21 | 0.0047 | 0.0716 | Cc1cc(C2CNCCO2)ccc1Nc1ccc(Cl)cc1 (racemic) [Example 79, (RS)-(4-Chloro-phenyl)-(2-methyl-4-morpholin-2-yl-phenyl)-amine]
22 | 0.0026 | 0.0626 | Cc1cc(C2CNCCO2)ccc1Nc1ccc(Cl)cn1 (racemic) [Example 80, (RS)-(5-Chloro-pyridin-2-yl)-(2-methyl-4-morpholin-2-yl-phenyl)-amine]
23 | 0.0015 | 0.057 | Cc1cc(Nc2ccc(C3CNCCO3)cc2C)ncc1Cl (racemic) [Example 84, (RS)-5-Chloro-4-methyl-N-(2-methyl-4-(morpholin-2-yl)phenyl)pyridin-2-amine]
24 | 0.0014 | 0.0194 | Cc1cc(Nc2ccc(C3CNCCO3)cc2C)ncc1Br (racemic) [Example 85, (RS)-5-Bromo-4-methyl-N-(2-methyl-4-(morpholin-2-yl)phenyl)pyridin-2-amine]
25 | 0.008 | 0.0874 | CCc1cnc(Nc2ccc(C3CNCCO3)cc2C)nc1 (racemic) [Example 88, (RS)-5-Ethyl-N-(2-methyl-4-(morpholin-2-yl)phenyl)pyrimidin-2-amine]
26 | 0.0062 | 0.0216 | Fc1cc(C2CNCCO2)ccc1Nc1ncc(Cl)cn1 (racemic) [Example 96, (RS)-5-Chloro-N-(2-fluoro-4-(morpholin-2-yl)phenyl)pyrimidin-2-amine]
27 | – | 0.0185 | Fc1cc(C2CNCCO2)ccc1Nc1ccc(Cl)cn1 (racemic) [Example 99, (RS)-5-Chloro-N-(2-fluoro-4-(morpholin-2-yl)phenyl)pyridin-2-amine]
28 | – | 0.003 | Fc1cc([C@@H]2CNCCO2)ccc1Nc1ncc(C2CC2)cn1 [Example 118, (5-Cyclopropyl-pyrimidin-2-yl)-((R)-2-fluoro-4-morpholin-2-yl-phenyl)-amine]
29 | – | 0.0051 | Fc1cc([C@H]2CNCCO2)ccc1Nc1ncc(C2CC2)cn1 [Example 119, (5-Cyclopropyl-pyrimidin-2-yl)-((S)-2-fluoro-4-morpholin-2-yl-phenyl)-amine]
